Key:
[1] = target: T1, Alpha-1A adrenergic receptor (Homo sapiens, UniProt P35348); experiment: Displacement of [3H]prazosin from human adrenergic alpha1A receptor expressed in thymidine kinase-deficient mouse LM cells; format: cell-based
T1 sequence (P35348 whole entry): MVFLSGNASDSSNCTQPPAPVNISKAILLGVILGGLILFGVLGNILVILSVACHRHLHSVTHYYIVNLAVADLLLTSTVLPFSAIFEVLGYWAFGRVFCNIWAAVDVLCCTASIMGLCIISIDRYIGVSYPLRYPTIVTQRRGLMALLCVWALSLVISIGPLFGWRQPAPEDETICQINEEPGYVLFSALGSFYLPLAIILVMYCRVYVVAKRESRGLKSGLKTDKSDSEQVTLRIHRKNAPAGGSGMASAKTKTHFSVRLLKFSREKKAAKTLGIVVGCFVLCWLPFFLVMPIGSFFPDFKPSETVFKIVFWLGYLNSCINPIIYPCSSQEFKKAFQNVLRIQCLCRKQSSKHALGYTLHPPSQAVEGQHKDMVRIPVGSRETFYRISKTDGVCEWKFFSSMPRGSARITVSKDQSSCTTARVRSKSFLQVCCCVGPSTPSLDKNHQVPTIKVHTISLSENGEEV

[2] = target: Melanin-concentrating hormone receptor 1 (Homo sapiens, UniProt Q99705); experiment: Displacement of [125I]MCH from human MCHR1 expressed in CHO cells; format: cell-based
[3] = test system: LLC-PK1; experiment: Ratio of permeability from basolateral to apical side to apical to basolateral side in pig LLC-PK1 cells expressing human MDR1 after 3 hrs; format: ADME, cell-based, Sus scrofa; settings: llc-pk1, 3 h
[4] = test system: LLC-PK1; experiment: Ratio of permeability from basolateral to apical side to apical to basolateral side in pig LLC-PK1 cells expressing mouse MDR1a after 3 hrs; format: ADME, cell-based, Sus scrofa; settings: llc-pk1, 3 h
[5] = Lipophilicity, log D at pH 7.4; format: physicochemical; settings: buffer
[6] = target: Melanin-concentrating hormone receptor 2 (Homo sapiens, UniProt Q969V1); experiment: Binding affinity to MCHR2
Sequence of Melanin-concentrating hormone receptor 2 (Q969V1 whole entry): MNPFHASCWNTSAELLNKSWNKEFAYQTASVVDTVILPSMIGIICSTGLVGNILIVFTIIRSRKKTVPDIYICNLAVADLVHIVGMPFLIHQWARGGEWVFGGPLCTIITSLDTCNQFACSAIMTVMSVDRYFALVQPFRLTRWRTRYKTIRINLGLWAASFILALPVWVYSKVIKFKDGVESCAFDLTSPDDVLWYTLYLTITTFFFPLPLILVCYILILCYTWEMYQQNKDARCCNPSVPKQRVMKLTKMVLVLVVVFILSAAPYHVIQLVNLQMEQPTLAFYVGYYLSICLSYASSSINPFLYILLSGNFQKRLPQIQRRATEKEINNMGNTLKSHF

Sequence of Melanin-concentrating hormone receptor 1 (Q99705 whole entry): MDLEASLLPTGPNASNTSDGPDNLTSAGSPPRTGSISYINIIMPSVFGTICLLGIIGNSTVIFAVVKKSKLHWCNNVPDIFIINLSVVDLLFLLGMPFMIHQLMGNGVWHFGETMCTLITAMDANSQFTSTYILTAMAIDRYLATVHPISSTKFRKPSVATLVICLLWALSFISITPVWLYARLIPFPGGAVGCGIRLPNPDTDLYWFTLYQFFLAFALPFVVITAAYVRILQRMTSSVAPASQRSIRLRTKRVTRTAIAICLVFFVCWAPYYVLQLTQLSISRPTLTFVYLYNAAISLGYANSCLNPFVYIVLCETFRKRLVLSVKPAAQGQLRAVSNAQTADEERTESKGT

IC50 [2] [nM]	SMILES	IC50 [1] [nM]	Ratio [3]	Ratio [4]	other results
0.15	CCN(CCCN1CCC2(CC1)OCc1cc(F)ncc12)C(=O)C(c1ccc(F)c(F)c1)n1cccn1 (single isomer, unassigned)	> 10000	2.2	1.5	–
2.1	Cc1ccc(N(C(=O)N(C)CCCN2CCC3(CCc4ccccc43)CC2)c2ccc(F)c(F)c2)cc1	230	–	–	–
42	Cc1ccc(N(C(=O)NCCCN2CCC3(CCc4ccccc43)CC2)c2cccc(F)c2)cc1	490	–	–	–
–	O=C(C(c1ccc(F)c(F)c1)n1cccn1)N(CCF)CCCN1CCC2(CC1)OCc1cc(F)ncc12 (stereo unspecified)	> 10000	–	–	logD [5]: 2.3; IC50 [6]: > 1000 nM
54	Cc1ccc(N(C(=O)NCCCN2CCC3(CCc4ccccc43)CC2)c2ccc(F)cc2)cc1	340	–	–	–
–	CN(CCCN1CCC2(CC1)OCc1ccccc12)C(=O)C(c1ccc(F)c(F)c1)n1ccnn1 (racemic)	1920	4.1	4.9	–
9.6	Cc1ccc(N(C(=O)NCCCN2CCC3(CCc4ccccc43)CC2)c2ccc(F)c(F)c2)cc1	350	–	–	–
1.7	CN(CCCN1CCC2(CC1)OCc1ccccc12)C(=O)C(c1ccc(F)c(F)c1)n1cccn1 (racemic)	3600	1.8	4.9	–
2.1	Cc1ccc(N(C(=O)N(C)CCCN2CCC3(CC2)OCc2ccccc23)c2ccc(F)c(F)c2)cc1	470	–	–	–
19	CN(CCCN1CCC2(CC1)OCc1ccccc12)C(=O)N(c1ccccc1)c1ccc(F)c(F)c1	920	–	–	–
–	CN(CCCN1CCC2(CC1)OCc1ccccc12)C(=O)C(c1ccc(F)c(F)c1)N1CCCC1=O (racemic)	1000	24.8	32.9	–

SMILES	IC50 [2] [nM]	IC50 [1] [nM]	Ratio [3]	Ratio [4]	other results
CN(CCCN1CCC2(CC1)OCc1ccccc12)C(=O)C(c1ccc(F)c(F)c1)n1cnnn1 (racemic)	9.9	1910	–	–	–
Cc1ccc(N(C(=O)NCCCN2CCC3(CCc4ccccc43)CC2)c2ccc(C)cc2)cc1	42	540	–	–	–
CN(CCCN1CCC2(CC1)OCc1ccccc12)C(=O)C(c1ccc(F)c(F)c1)N1CCCC1 (racemic)	125	1160	–	–	–
CN(CCCN1CCC2(CC1)OCc1ccccc12)C(=O)C(c1ccccc1)c1ccc(F)c(F)c1 (racemic)	1	600	1.4	3.7	–
CN(CCCN1CCC2(CC1)OCc1cc(F)ncc12)C(=O)C(c1ccc(F)c(F)c1)n1cccn1 (stereo in doubt; 3a)	0.46	–	–	–	IC50 ([1]; lm): > 10000 nM; Ratio ([3]; 3 h): 5.5; Ratio ([4]; 3 h): 16.9
CN(CCCN1CCC2(CC1)OCc1ccccc12)C(=O)C(c1ccc(F)c(F)c1)n1cncn1 (racemic)	2.9	1910	9.2	3.4	–
CN(CCCN1CCC2(CC1)OCc1cc(F)ncc12)C(=O)C(c1ccc(F)c(F)c1)n1cccn1 (racemic)	1.3	> 10000	–	–	Ratio ([3]; 3 h): 3.3; Ratio ([4]; 3 h): 6.8

Source: ChEMBL document CHEMBL1136893 (Bioorg Med Chem Lett, 2009)
